Reference: article PMC5294416, “Novel peptides for deciphering structural and signalling functions of E-cadherin in mouse embryonic stem cells” (Scientific Reports, 2017)
“Also recorded” adds a separate entry of the source.

Columns and labels:
wtD3 mESCs [1] = assay: Loss of cell-cell contact, phase contrast microscopy; format: cell-based, mouse
Experimental: (§1) Unless otherwise stated, mESC lines were grown on gelatinised tissue culture grade 6-well plates at 37 °C/5% CO2, as previously described. mESCs cells were treated with 10 μM peptide in mESC culture medium which was replenished every 24 h. Inhibition of specific pathways in mESCs was achieved by incubation with 10 μM LY294002 (PI3K inhibitor), PD9805 (MEK inhibitor) and SB431542 (TGFβ1 R inhibitor).

[2] = tested on: Akt phosphorylation in mESCs; assay: Akt phosphorylation in treated mESCs; format: cell-based, mouse; conditions: data not shown
Experimental: (§2) Cells were harvested using cell dissociation buffer, centrifuged and washed with PBS prior to lysis using Radioimmunoprecipitation (RIPA) buffer (Sigma) containing protease inhibitor cocktail tablets (1 tablet per 10 ml RIPA buffer) (Roche Applied Science) at a concentration of 2 × 10^7 cell/ml. Lysates were separated by SDS-PAGE and electrotransferred onto nitrocellulose membrane as previously described. The membrane was probed using the appropriate primary antibody with subsequent incubation with HRP-conjugated secondary antibody. The membrane was exposed to an autoradiographic film (Hyperfilm ECL, GE Healthcare, Amersham, UK) for the appropriate time period in an X-ray cassette before the film was manually developed in a dark room using Kodak GBX developer and fixer solutions (Sigma, Dorset, UK). Primary antibodies: anti-α-tubulin, 1:2000 dilution (T9026, Sigma, Dorset, UK); anti-AKT, 1:200 dilution (#9272, Cell Signalling Technology, MA, USA); anti-pAKT (Ser473), 1:200 (#4060S, Cell Signalling Technology, MA, USA); anti-STAT3, 1:200 dilution (SC-482, Santa Cruz Biotechnology Inc, TX, USA); anti-pSTAT3, 1:200 dilution (#9138S, Cell Signalling Technology, MA, USA).

[3] = tested on: STAT3 phosphorylation in wtD3 mESCs; assay: Western blot analysis of phosphorylated STAT3; format: cell-based, mouse
Experimental: as §1, §2

[4] = target: T1, recombinant mouse E-Cadherin Fc Chimera (Mus musculus, UniProt P09803); assay: Biacore SPR equilibrium binding analysis (affinity capture)
T1 construct: purchased R&D Systems
Experimental: Biacore SPR analysis was used to measure the interaction between peptides and recombinant mouse E-Cadherin Fc Chimera (R&D Systems). Analytes were passed over an HTE chip with surface bound His-tagged Recombinant Mouse E-Cadherin Fc Chimera (R&D Systems). The kinetics of interaction, i.e. the rates of complex formation (ka) and dissociation (kd), were determined and Integrin α4β7 protein was used as a control. Analysis was performed by the Biomolecular Analysis Core Facility (The University of Manchester, UK) on a Proteon XPR-36 protein interaction array system (Bio-Rad) using a HTE chip for high capacity His-tagged protein capture (Bio-Rad). Equilibrium analysis runs were performed three times and an average KD was calculated. Running buffer: HBS/0.02%, Tween/2 mM, CaCl2/1 mM MgCl2.

[5] = tested on: OCT4 protein in wtD3 mESCs; assay: Immunofluorescence microscopy analysis of OCT4 protein expression with pathway inhibitors; format: cell-based, mouse
Experimental: as §1
(§3) Monolayer cultured mESCs were fixed in situ in 4% w/v PFA in PBS for 30 minutes at room temperature, washed twice with PBS and blocked with 1% goat serum in 0.1% w/v BSA, 0.1% Triton X-100 in PBS for 30 minutes. Cells were incubated in the appropriate primary antibody in goat blocking buffer for two hours at RT. Cells were washed three times in PBS and incubated in the appropriate Alexa fluor-488 or −546 conjugated secondary antibody at RT for 1 hour in the dark. Cells were washed three times with PBS, mounted in 4′6-diamidino-2-phenylindole (DAPI) (Vector Laboratories) and visualized using a Leica DM6000B fluorescence microscope (Leica Microsystems) and processed using Leica LAS X Core software (Leica Microsystems). Primary antibodies: anti-Nanog, 1:200 dilution (ab80892, Abcam Plc, Cambridge, UK); anti-Oct4, 1:200 dilution (ab19857, Abcam Plc, Cambridge, UK). For immunofluorescence microscopy analysis of fluorescent-tagged peptides, cells were incubated in 500 μM peptide in cell culture medium for 15 minutes, washed twice in ice cold PBS and mounted with Vectorshield containing DAPI. Cells were visualized using a Leica DM6000B fluorescence microscope (Leica Microsystems) and processed using Leica LAS X Core software (Leica Microsystems).
(§4) Images were imported into ImageJ and fluorescence intensity measured using the Analyse > Measure function on areas selected using the rectangular or oval selection icons.

[6] = tested on: NANOG protein in wtD3 mESCs; assay: Immunofluorescence microscopy analysis of NANOG protein expression; format: cell-based, mouse; conditions: 96 h / 4 days where stated
Experimental: as §3, with “For immunofluorescence microscopy analysis of fluorescent-tagged peptides, cells were incubated in 500 μM peptide in cell culture medium for 15 minutes, washed twice in ice cold PBS and mounted with Vectorshield containing DAPI.” left out
as §4

[7] = tested on: Nanog, Klf4, Tbx3, Esrrb, Nr0b1, Nr5a2 and Tet1 transcripts in wtD3 mESCs; assay: qPCR analysis of pluripotency transcript expression; format: cell-based, mouse
Experimental: as §1
Primers for qPCR were designed using the Roche Applied science Universal Probe Library software and BLAST screened for sequence specificity. Only primers producing a single dissociation peak were used. RNA was extracted from mESCs and cDNA at a concentration of 2 ng/μl was used for analysis in a MicroAmp Optical 96-well Reaction Plate (Applied Biosystems) using SYBR green Jumpstart Taq ReadyMix (Applied Biosystems). Primer sequences: 18srRNA Forward (F) […], Reverse (R) […]; ESRRB F-[…], R-[…]; KLF4 F-[…], R-ATGTCCGCCAGGTTGAAG; NANOG F-[…], R-[…]; NR0B1 F-[…], R-[…]; NR5A2 F-[…], R-[…]; TBX3 F-[…], R-[…]; TET1 F-[…], R-[…].

[8] = tested on: STAT3 phosphorylation in wtD3 mESCs; conditions: mESC; cited from earlier work
Text: (§5) E-cadherin provides an attractive target to manipulate ESCs in culture since cell signalling mediated through this protein has significant effects on both ESC pluripotent states and survival. We have previously shown that abrogation of E-cadherin-mediated cellular aggregation allows culture of mESCs in shake flask bioreactors whilst retaining pluripotency, either through gene knockout or an inhibitory antibody DECMA-1[16]. However, utilisation of E-cadherin neutralising Abs for ESC culture is expensive and more cost-effective E-cadherin inhibitors are required before this technique becomes com ...

MCF-7 = MCF-7 cell line; cited from earlier work
Text: as §5

wtD3 mESCs [9] = conditions: mESC cell line; cited from earlier work
Text: as §5

pERK1/2 in wtD3 mESCs = assay: Western blot analysis of phosphorylated ERK1/2; format: cell-based, mouse
mESCs = assay: Cell viability in monolayer culture; format: cell-based, mouse; conditions: data not shown
[10] = transcript, mESCs, Fig. 6a summary

Question: For “H-SWELYYPLRANL-NH2 [Epep, H-SWELYYPLRANL-NH2]”, which “Loss of cell-cell contact (10μM)?” value (wtD3 mESCs [1]; mESCs, 10 μM, Fig. 6a summary) is on record?
Answer: The value was “YES”.

Question: And the “Effect on cell-cell contact (in words)” value (wtD3 mESCs [1]; wtD3 mESCs, 10 μM peptide, 24 h, phase contrast)?
Answer: The value was “loss of cell-cell contact after 24 h; also recorded: loss of cell-cell contact within 24 h”.

Question: What about the “Cell-cell contact after removal of the inhibitor” value (wtD3 mESCs [1]; wtD3 mESCs, 24 h post-removal of treatment) of the same substance?
Answer: The value was “restoration of cell-cell contact; also recorded: reversible”.

Question: What about the Akt phosphorylation [2] of the same substance?
Answer: Its Akt phosphorylation is “no changes in Akt phosphorylation”.

Question: What about the “Loss of pStat3” value ([3]; mESCs, Fig. 6a summary) of the same substance?
Answer: Its value is “YES”.

Question: And the “Effect on STAT3 phosphorylation (in words)” value ([3]; wtD3 mESCs vs control treated cells, western blot)?
Answer: Its value is “decreased STAT3 phosphorylation within 24 h; also recorded: significantly decreased phosphorylation of STAT3”.

Question: And the Kd ([4]; equilibrium analysis using affinity capture on HTE chip, peptide stock in water, average of three runs, running buffer HBS/0.02% Tween/2 mM CaCl2/1 mM MgCl2)?
Answer: The Kd was 3.4 µM.

Question: What about the Kd ([4]; peptide dissolved in 10%v/v DMSO/H2O, equilibrium analysis using affinity capture) of the same substance?
Answer: The Kd was 1.15 µM.

Question: What about the “OCT4 protein expression in the presence of SB431542” value ([5]; peptide-treated wtD3 mESCs plus Activin/Nodal inhibitor SB431542, after 5 days) of the same substance?
Answer: Its value is “maintained expression of OCT4 protein”.

Question: What about the “OCT4 protein expression in the presence of SU5402” value ([5]; peptide-treated wtD3 mESCs plus FGFR1 inhibitor SU5402, after 5 days) of the same substance?
Answer: The value was “maintained expression of OCT4 protein”.

Question: What about the NANOG protein expression [6] of the same substance?
Answer: The NANOG protein expression was “decreased NANOG protein expression”.

Question: What about the “Transcripts restored to control levels after removal of inhibitor” value ([7]; mESCs, 24 h post-removal) of the same substance?
Answer: The value was “Nanog, Esrrb, Tbx3 and Tet1”.

Question: What about the “Loss of ESRRB” value [7, 10] of the same substance?
Answer: Its value is “YES”.

Question: And the “Loss of Klf4” value [7, 10]?
Answer: The value was “YES”.

Question: What about the “Loss of Nanog” value [7, 10] of the same substance?
Answer: The value was “YES”.

Question: What about the “Loss of Nr0b1” value [7, 10] of the same substance?
Answer: The value was “YES”.

Question: And the “Loss of Nr5a2” value [7, 10]?
Answer: Its value is “YES”.

Question: And the “Loss of TBX3” value [7, 10]?
Answer: The value was “YES”.

Question: And the “Transcripts with decreased expression compared to control (qPCR)” value ([7]; wtD3 mESCs, 10 μM peptide, 24 h)?
Answer: Its value is “Nanog, Klf4, Tbx3, Esrrb, Nr0b1, Nr5a2 and Tet1”.

Question: And the “Transcripts remaining significantly decreased after removal of inhibitor” value ([7]; wtD3 mESCs, 24 h following removal)?
Answer: The value was “Klf4, Nr0b1 and Nr5a2”.

Question: What about the “phosphorylation of STAT3” value [8] of the same substance?
Answer: The value was “abrogate phosphorylation of STAT3”.

Question: And the “inhibition of E-cadherin mediated cell-cell contact” value (MCF-7)?
Answer: Its value is “inhibit E-cadherin mediated cell-cell contact”.

Question: And the “inhibition of E-cadherin mediated cell-cell contact” value (wtD3 mESCs [9])?
Answer: Its value is “inhibit E-cadherin mediated cell-cell contact”.

Question: And the “pERK1/2 compared to untreated mESCs” value (pERK1/2 in wtD3 mESCs)?
Answer: Its value is “decreased pERK1/2”.

Question: What about the “cell viability in monolayer culture” value (mESCs) of the same substance?
Answer: Its value is “no significant difference in cell viability”.
